From patent publication US9108983B2, “Pyrrole compounds, a process for their preparation and pharmaceutical compositions containing them” (LES LABORATOIRES SERVIER, priority 2013, dated 2015) come the findings set out here.

In experiment [1] the test system is RS4;11 leukaemia tumour line. As to the kind of experiment: In vitro cytotoxicity (Microculture Tetrazolium Assay). The conditions noted are these: RS4;11 cells, exposed for 48 hours, cell viability, read-out: IC50 (nM) MTT RS4;11. It is filed as cell-based. How it is done:
The cytotoxicity studies were carried out on the RS4;11 leukaemia tumour line.
The cells are distributed onto microplates and exposed to the test compounds for 48 hours.
The cell viability is then quantified by a colorimetric assay, the Microculture Tetrazolium Assay (Cancer Res., 1987, 47, 939-942).

Experiment [2] concerns the target Bcl-2 protein (histag-Bcl-2, UniProtKB P10415) (Homo sapiens (Human), UniProt P10415). As to the kind of experiment: Inhibition of Bcl-2 by the fluorescence polarisation technique. The class given is binding. The conditions noted are these: incubation for 2 hours, read-out: IC50 (nM) Bcl-2 FP. How it is done: The fluorescence polarisation tests were carried out on microplates (384 wells). The Bcl-2 protein, labelled (histag-Bcl-2 such that Bcl-2 corresponds to the UniProtKB® primary accession number: P10415), at a final concentration of 2.50×10^−8 M, is mixed with a fluorescent peptide (Fluorescein-[…]), at a final concentration of 1.00×10^−8 M in a buffer solution (Hepes 10 mM, NaCl 150 mM, Tween20 0.05%, pH 7.4), in the presence or absence of increasing concentrations of test compounds. After incubation for 2 hours, the fluorescence polarisation is measured.

Counter-ions that a name gives are not always drawn. Like-named read-outs stand apart in the source and are kept apart here.

Chain of Bcl-2 protein (P10415 whole entry): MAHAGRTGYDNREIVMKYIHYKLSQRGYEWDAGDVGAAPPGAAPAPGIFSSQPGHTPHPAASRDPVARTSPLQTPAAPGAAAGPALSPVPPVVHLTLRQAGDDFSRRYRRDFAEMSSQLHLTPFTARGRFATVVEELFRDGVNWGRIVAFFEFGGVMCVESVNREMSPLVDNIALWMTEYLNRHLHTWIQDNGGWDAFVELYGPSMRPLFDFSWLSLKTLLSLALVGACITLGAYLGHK

Turning to “5-(5-Fluoro-4-methoxy-2-{[(3S)-3-(morpholin-4-ylmethyl)-3,4-dihydroisoquinolin-2(1H)-yl]carbonyl}phenyl)-N-(4-hydroxyphenyl)-1,2-dimethyl-N-(1-methyl-2,3-dihydro-1H-pyrrolo[2,3-b]pyridin-5-yl)-1H-pyrrole-3-carboxamide hydrochloride [Example 210]”, the IC50 in experiment [1] came out at 47.2 nM; in experiment [2] it was 8.8 nM.

Turning to `Cc1c(C(=O)N(c2ccc(O)cc2)c2cnn(C3CCOC3)c2)cc(-c2cc(F)ccc2C(=O)N2Cc3ccccc3C[C@H]2CN2CCOCC2)n1C` (single isomer, unassigned) [Example 402, 5-(5-Fluoro-2-{[(3S)-3-(morpholin-4-ylmethyl)-3,4-dihydroisoquinolin-2(1H)-yl]carbonyl}phenyl)-N-(4-hydroxyphenyl)-1,2-dimethyl-N-{1-[(3S or R)-tetrahydrofuran-3-yl]-1H-pyrazol-4-yl}-1H-pyrrole-3-carboxamide hydrochloride], the IC50 is 241 nM in experiment [1] (Homo sapiens, RS4-11, 48 h) and 26.1 nM in experiment [2].

For the molecule `Cc1c(C(=O)N(c2ccc(O)cc2)c2cnn(C3CCOC3)c2)cc(-c2cc(F)ccc2C(=O)N2Cc3ccccc3C[C@H]2CN2CCOCC2)n1C` (single isomer, unassigned) [Example 403, 5-(5-Fluoro-2-{[(3S)-3-(morpholin-4-ylmethyl)-3,4-dihydroisoquinolin-2(1H)-yl]carbonyl}phenyl)-N-(4-hydroxyphenyl)-1,2-dimethyl-N-{1-[(3R or S)-tetrahydrofuran-3-yl]-1H-pyrazol-4-yl}-1H-pyrrole-3-carboxamide hydrochloride], the IC50 in experiment [1] (hydrochloride) turned out to be 289 nM; in experiment [2], 24.2 nM.

Turning to `Cc1c(C(=O)N(c2ccc(O)cc2)c2cnn(C)c2)cc(-c2cc(Cl)ccc2C(=O)N2Cc3ccccc3C[C@H]2C)n1C` [Example 1, 5-(5-Chloro-2-{[(3R)-3-methyl-3,4-dihydroisoquinolin-2(1H)-yl]carbonyl}phenyl)-N-(4-hydroxyphenyl)-1,2-dimethyl-N-(1-methyl-1H-pyrazol-4-yl)-1H-pyrrole-3-carboxamide], the IC50 came out at 33.6 nM in experiment [1] (Homo sapiens, RS4-11, 48 h) and 5 nM in experiment [2].

In the case of `Cn1cc(C(=O)N(c2ccccc2)c2ccccc2)cc1-c1ccccc1C(=O)N1Cc2ccccc2C[C@H]1CN` [Example 2, 5-(2-{[(3S)-3-(Aminomethyl)-3,4-dihydroisoquinolin-2(1H)-yl]carbonyl}phenyl)-1-methyl-N,N-diphenyl-1H-pyrrole-3-carboxamide], the IC50 in experiment [1] (Homo sapiens, RS4-11, 48 h) was determined as 1660 nM.

Take `CN1CCN(C[C@@H]2Cc3ccccc3CN2C(=O)c2ccc(Cl)cc2-c2cc(C(=O)N(c3ccc(O)cc3)c3ccc4[nH]ccc4c3)cn2C)CC1` [Example 3, 5-(5-Chloro-2-{[(3S)-3-[(4-methylpiperazin-1-yl)methyl]-3,4-dihydroisoquinolin-2(1H)-yl]carbonyl}phenyl)-N-(4-hydroxyphenyl)-N-(1H-indol-5-yl)-1-methyl-1H-pyrrole-3-carboxamide]: the IC50 in experiment [1] (Homo sapiens, RS4-11, 48 h) was 94.9 nM; in experiment [2], 24.6 nM.

Regarding `CN1CCN(C[C@@H]2Cc3ccccc3CN2C(=O)c2cc3c(cc2-c2cc(C(=O)N(c4ccc(O)cc4)c4ccc5[nH]ccc5c4)cn2C)OCO3)CC1` [Example 4, N-(4-Hydroxyphenyl)-N-(1H-indol-5-yl)-1-methyl-5-(6-{[(3S)-3-[(4-methylpiperazin-1-yl)methyl]-3,4-dihydroisoquinolin-2(1H)-yl]carbonyl}-1,3-benzodioxol-5-yl)-1H-pyrrole-3-carboxamide], the 50% inhibitory concentration (IC50) in experiment [1] (Homo sapiens, RS4-11, 48 h) worked out at 231 nM.

`CC(C)n1cc(C(=O)N(c2ccc(O)cc2)c2ccc3c(ccn3C)c2)cc1-c1cc(Cl)ccc1C(=O)N1Cc2ccccc2C[C@H]1CN1CCN(C)CC1` [Example 8]: the IC50 in experiment [1] stood at 255 nM.

Take `Cc1c(C(=O)N(c2ccccc2)c2ccc(O)cc2)cc(-c2cc(Cl)ccc2C(=O)N2Cc3ccccc3C[C@H]2COCCN(C)C)n1C` [Example 60, 5-(5-Chloro-2-{[(3S)-3-{[2-(dimethylamino)ethoxy]methyl}-3,4-dihydroisoquinolin-2(1H)-yl]carbonyl}phenyl)-N-(4-hydroxyphenyl)-1,2-dimethyl-N-phenyl-1H-pyrrole-3-carboxamide hydrochloride]: the IC50 in experiment [1] (Homo sapiens, RS4-11, 48 h) turned out to be 18.3 nM.

As to `Cc1c(C(=O)N(c2ccc(O)cc2)c2cnn(C)c2)cc(-c2cc(F)ccc2C(=O)N2Cc3ccccc3C[C@H]2CN2CCOCC2)n1C` [Example 67, 5-(5-Fluoro-2-{[(3S)-3-(morpholin-4-ylmethyl)-3,4-dihydroisoquinolin-2(1H)-yl]carbonyl}phenyl)-N-(4-hydroxyphenyl)-1,2-dimethyl-N-(1-methyl-1H-pyrazol-4-yl)-1H-pyrrole-3-carboxamide hydrochloride], the half-inhibitory concentration (IC50) in experiment [1] (Homo sapiens, RS4-11, 48 h) stood at 98.6 nM.

Regarding `C[C@@H]1Cc2ccccc2CN1C(=O)c1cc2c(cc1-c1cc(C(=O)N(c3ccc(O)cc3)c3cnn(C)c3)c(CCN3CCOCC3)n1C)OCO2` [Example 81, N-(4-Hydroxyphenyl)-1-methyl-5-(6-{[(3R)-3-methyl-3,4-dihydroisoquinolin-2(1H)-yl]carbonyl}-1,3-benzodioxol-5-yl)-N-(1-methyl-1H-pyrazol-4-yl)-2-[2-(morpholin-4-yl)ethyl]-1H-pyrrole-3-carboxamide hydrochloride], the IC50 in experiment [1] (Homo sapiens, RS4-11, 48 h) came out at 249 nM.

In the case of `Cc1c(N(C(=O)c2cc(-c3cc(Cl)ccc3C(=O)N3Cc4ccccc4C[C@H]3CN3CCOCC3)n(C)c2C)c2ccc(O)cc2)cc(C#N)n1C` [Example 386, 5-(5-Chloro-2-{[(3S)-3-(morpholin-4-ylmethyl)-3,4-dihydroisoquinolin-2(1H)-yl]carbonyl}phenyl)-N-(5-cyano-1,2-dimethyl-1H-pyrrol-3-yl)-N-(4-hydroxyphenyl)-1,2-dimethyl-1H-pyrrole-3-carboxamide hydrochloride], the IC50 in experiment [1] (Homo sapiens) was found to be 9.23 nM.

In the case of `Cl.[2H]C([2H])([2H])n1cc(N(C(=O)c2cc(-c3cc(F)ccc3C(=O)N3Cc4ccccc4C[C@H]3CN3CCOCC3)n(C)c2C)c2ccc(O)cc2)cn1` [Example 420, 5-(5-Fluoro-2-{[(3S)-3-(morpholin-4-ylmethyl)-3,4-dihydroisoquinolin-2(1H)-yl]carbonyl}phenyl)-N-(4-hydroxyphenyl)-1,2-dimethyl-N-[1-(trideuteriomethyl)-1H-pyrazol-4-yl]-1H-pyrrole-3-carboxamide hydrochloride], the IC50 in experiment [1] (Homo sapiens, RS4-11, 48 h) amounted to 51.8 nM.

On to `Cc1c(C(=O)N(c2ccccc2)c2cnc3c(ccn3C)c2)cc(-c2cc(F)c(O)cc2C(=O)N2Cc3ccccc3C[C@H]2CN2CCOCC2)n1C` [Example 443, 5-(5-Fluoro-4-hydroxy-2-{[(3S)-3-(morpholin-4-ylmethyl)-3,4-dihydroisoquinolin-2(1H)-yl]carbonyl}phenyl)-1,2-dimethyl-N-(1-methyl-1H-pyrrolo[2,3-b]pyridin-5-yl)-N-phenyl-1H-pyrrole-3-carboxamide], for which the IC50 in experiment [1] (Homo sapiens, RS4-11, 48 h) was 57.9 nM.

`Cl.[2H]C([2H])([2H])n1c(C#N)cc(N(C(=O)c2cc(-c3cc(Cl)ccc3C(=O)N3Cc4ccccc4C[C@H]3CN3CCOCC3)n(C)c2C)c2ccc(O)cc2)c1C` [Example 449, 5-(5-Chloro-2-{[(3S)-3-(morpholin-4-ylmethyl)-3,4-dihydroisoquinolin-2(1H)-yl]carbonyl}phenyl)-N-[5-cyano-2-methyl-1-(trideuteriomethyl)-1H-pyrrol-3-yl]-N-(4-hydroxyphenyl)-1,2-dimethyl-1H-pyrrole-3-carboxamide hydrochloride]: the IC50 in experiment [1] (Homo sapiens) worked out at 11.9 nM.

On to `COc1ccc(N(C(=O)c2cc(-c3cc(Cl)ccc3C(=O)N3Cc4ccccc4C[C@H]3CN3CCOCC3)n(C)c2C)c2ccc(O)cc2)nc1C#N` [Example 457, 5-(5-Chloro-2-{[(3S)-3-(morpholin-4-ylmethyl)-3,4-dihydroisoquinolin-2(1H)-yl]carbonyl}phenyl)-N-(6-cyano-5-methoxypyridin-2-yl)-N-(4-hydroxyphenyl)-1,2-dimethyl-1H-pyrrole-3-carboxamide hydrochloride], for which the IC50 in experiment [1] (Homo sapiens, RS4-11, 48 h) worked out at 80.4 nM.

As to `CCOc1ncc(N(C(=O)c2cc(-c3cc(F)ccc3C(=O)N3Cc4ccccc4C[C@H]3CN3CCOCC3)n(C)c2C)c2ccc(O)cc2)cn1` [Example 463, N-(2-Ethoxypyrimidin-5-yl)-5-(5-fluoro-2-{[(3S)-3-(morpholin-4-ylmethyl)-3,4-dihydroisoquinolin-2(1H)-yl]carbonyl}phenyl)-N-(4-hydroxyphenyl)-1,2-dimethyl-1H-pyrrole-3-carboxamide], in experiment [1] (Homo sapiens, RS4-11, 48 h), the IC50 was determined as 40.8 nM.

`Cc1c(N(C(=O)c2cc(-c3ccc(Cl)cc3C(=O)N3Cc4ccccc4C[C@H]3CN3CCOCC3)n(C)c2C)c2ccc(O)cc2)cc(C#N)n1C` [Example 465, 5-(4-Chloro-2-{[(3S)-3-(morpholin-4-ylmethyl)-3,4-dihydroisoquinolin-2(1H)-yl]carbonyl}phenyl)-N-(5-cyano-1,2-dimethyl-1H-pyrrol-3-yl)-N-(4-hydroxyphenyl)-1,2-dimethyl-1H-pyrrole-3-carboxamide hydrochloride]: the IC50 in experiment [1] (Homo sapiens, RS4-11, 48 h) came out at 50.6 nM.

`Cc1c(C(=O)N(c2ccc(O)cc2)c2cnn(C)c2)cc(-c2ccc(Cl)cc2C(=O)N2Cc3ccccc3C[C@H]2CN2CCOCC2)n1C` [Example 466, 5-(4-Chloro-2-{[(3S)-3-(morpholin-4-ylmethyl)-3,4-dihydroisoquinolin-2(1H)-yl]carbonyl}phenyl)-N-(4-hydroxyphenyl)-1,2-dimethyl-N-(1-methyl-1H-pyrazol-4-yl)-1H-pyrrole-3-carboxamide hydrochloride]: in experiment [1] (Homo sapiens, RS4-11, 48 h), the IC50 was 493 nM.
